Experimental data reported in PubChem BioAssay (NCI).
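Following 48 hours of exposure in 96-well plates, responses at five concentrations were used to interpolate endpoints linearly. TGI is the concentration that stops growth completely.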

Experiments:
Experiment in all cases: inhibition of tumour cell growth, NCI panel, 48 h
DLD-1 colon = tested on: DLD-1 colon
HOP-92 NSCLC = tested on: HOP-92 NSCLC
SN12C renal = tested on: SN12C renal
SNB-78 CNS = tested on: SNB-78 CNS
HCT-116 colon = tested on: HCT-116 colon
UACC-257 melanoma = tested on: UACC-257 melanoma
LOX IMVI melanoma = tested on: LOX IMVI melanoma
NCI-H226 lung = tested on: NCI-H226 lung
RPMI-8226 leukemia = tested on: RPMI-8226 leukemia
HOP-18 NSCLC = tested on: HOP-18 NSCLC
KM20L2 colon = tested on: KM20L2 colon
SF-295 CNS = tested on: SF-295 CNS
OVCAR-3 ovarian = tested on: OVCAR-3 ovarian
HOP-62 NSCLC = tested on: HOP-62 NSCLC
SF-268 CNS = tested on: SF-268 CNS
SNB-75 CNS = tested on: SNB-75 CNS
NCI-H23 lung = tested on: NCI-H23 lung
HT29 colon = tested on: HT29 colon
ACHN renal = tested on: ACHN renal
SK-MEL-5 melanoma = tested on: SK-MEL-5 melanoma
MOLT-4 leukemia = tested on: MOLT-4 leukemia
RXF 393 renal = tested on: RXF 393 renal
OVCAR-4 ovarian = tested on: OVCAR-4 ovarian
COLO 205 colon = tested on: COLO 205 colon
MALME-3M melanoma = tested on: MALME-3M melanoma
HCC-2998 colon = tested on: HCC-2998 colon
SK-MEL-28 melanoma = tested on: SK-MEL-28 melanoma
SK-MEL-2 melanoma = tested on: SK-MEL-2 melanoma
HCT-15 colon = tested on: HCT-15 colon
K-562 leukemia = tested on: K-562 leukemia
IGROV1 ovarian = tested on: IGROV1 ovarian
NCI-H460 lung = tested on: NCI-H460 lung
DMS 273 small cell lung = tested on: DMS 273 small cell lung
CCRF-CEM leukemia = tested on: CCRF-CEM leukemia
U251 CNS = tested on: U251 CNS
CAKI-1 renal = tested on: CAKI-1 renal
EKVX NSCLC = tested on: EKVX NSCLC
UACC-62 melanoma = tested on: UACC-62 melanoma
NCI-H522 lung = tested on: NCI-H522 lung
M19-MEL melanoma = tested on: M19-MEL melanoma
LXFL 529 NSCLC = tested on: LXFL 529 NSCLC
OVCAR-8 ovarian = tested on: OVCAR-8 ovarian
OVCAR-5 ovarian = tested on: OVCAR-5 ovarian
SNB-19 CNS = tested on: SNB-19 CNS
A549 NSCLC = tested on: A549 NSCLC
A498 renal = tested on: A498 renal
SK-OV-3 ovarian = tested on: SK-OV-3 ovarian
UO-31 renal = tested on: UO-31 renal
SW-620 colon = tested on: SW-620 colon
KM12 colon = tested on: KM12 colon
RXF-631 renal = tested on: RXF-631 renal
M14 melanoma = tested on: M14 melanoma
TK-10 renal = tested on: TK-10 renal
SR leukemia = tested on: SR leukemia
HL-60(TB) leukemia = tested on: HL-60(TB) leukemia
SF-539 CNS = tested on: SF-539 CNS
DMS 114 small cell lung = tested on: DMS 114 small cell lung

For `Cc1ccccc1OCC(COC(=O)Nc1ccccc1)OC(=O)Nc1ccccc1` (configuration not stated), the TGI (DLD-1 colon) was > 100 µM, the TGI (HOP-92 NSCLC) was 38.5 µM and the TGI (SN12C renal) was > 100 µM. For the same compound, the TGI (SNB-78 CNS) was 79 µM, the TGI (HCT-116 colon) was > 100 µM and the TGI (UACC-257 melanoma) was > 100 µM. The TGI (LOX IMVI melanoma) was 55.9 µM, the TGI (NCI-H226 lung) was > 100 µM and the TGI (RPMI-8226 leukemia) was > 100 µM. The TGI (HOP-18 NSCLC) was 86.6 µM, the TGI (KM20L2 colon) was > 100 µM and the TGI (SF-295 CNS) was > 100 µM. For the same compound, the TGI (OVCAR-3 ovarian) was > 100 µM, the TGI (HOP-62 NSCLC) was > 100 µM and the TGI (SF-268 CNS) was > 100 µM. The TGI (SNB-75 CNS) was 38.3 µM, the TGI (NCI-H23 lung) was > 100 µM and the TGI (HT29 colon) was > 100 µM. The TGI (ACHN renal) was > 100 µM, the TGI (SK-MEL-5 melanoma) was > 100 µM and the TGI (MOLT-4 leukemia) was > 100 µM. The TGI (RXF 393 renal) was 43.5 µM, the TGI (OVCAR-4 ovarian) was > 100 µM and the TGI (COLO 205 colon) was > 100 µM. For the same compound, the TGI (MALME-3M melanoma) was > 100 µM, the TGI (HCC-2998 colon) was > 100 µM and the TGI (SK-MEL-28 melanoma) was > 100 µM. For the same compound, the TGI (SK-MEL-2 melanoma) was > 100 µM, the TGI (HCT-15 colon) was > 100 µM and the TGI (K-562 leukemia) was 27.8 µM. The TGI (IGROV1 ovarian) was > 100 µM, the TGI (NCI-H460 lung) was > 100 µM and the TGI (DMS 273 small cell lung) was > 100 µM. For the same compound, the TGI (CCRF-CEM leukemia) was > 100 µM, the TGI (U251 CNS) was > 100 µM and the TGI (CAKI-1 renal) was > 100 µM. For the same compound, the TGI (EKVX NSCLC) was > 100 µM, the TGI (UACC-62 melanoma) was > 100 µM and the TGI (NCI-H522 lung) was > 100 µM. The TGI (M19-MEL melanoma) was > 100 µM, the TGI (LXFL 529 NSCLC) was > 100 µM and the TGI (OVCAR-8 ovarian) was > 100 µM. The TGI (OVCAR-5 ovarian) was > 100 µM, the TGI (SNB-19 CNS) was 89.4 µM and the TGI (A549 NSCLC) was > 100 µM. The TGI (A498 renal) was > 100 µM, the TGI (SK-OV-3 ovarian) was > 100 µM and the TGI (UO-31 renal) was > 100 µM. For the same compound, the TGI (SW-620 colon) was > 100 µM, the TGI (KM12 colon) was > 100 µM and the TGI (RXF-631 renal) was > 100 µM. The TGI (M14 melanoma) was > 100 µM, the TGI (TK-10 renal) was > 100 µM and the TGI (SR leukemia) was > 100 µM. The TGI (HL-60(TB) leukemia) was 68.7 µM, the TGI (SF-539 CNS) was 15.4 µM and the TGI (DMS 114 small cell lung) was > 100 µM.
